The results in this text go back to patent US20260356819A1, “OXOISOINDOLINYL-SUBSTITUTED […] DERIVATIVE AND USE THEREOF” (GLUETACS THERAPEUTICS (SHANGHAI) CO., LTD., priority 2023, published 2026).

What all share (type): cell-based
Conditions in all cases: compounds at 50 nM and 500 nM

One assay has as its target T1, WEE1 (Homo sapiens, UniProt P30291+Q96SW2).
T1 construct: The supernatant was aspirated as the extracted total cell protein; endogenous in cells; host or cells: human peripheral blood mononuclear cells (hPBMCs)
Nature of the assay: Western blot degradation of WEE1 in hPBMCs (24 h). The method, boiled down:
(§1)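 hPBMCs (1×10^6 cells/mL) exposed to compound at 50 nM and 500 nM for 24 h, DMSO as reference. Lysates run on SDS-PAGE and immunoblotted. Band grayscale normalized to internal control gives % protein remaining; DC50 from fitted concentration-response of band intensity versus DMSO.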
(A western blot detects proteins with antibodies after separation by electrophoresis.)

For the next assay, the target named is T2, IKZF3 (Homo sapiens, UniProt Q96SW2+Q9UKT9).
T2 construct: The supernatant was aspirated as the extracted total cell protein; endogenous in cells; host or cells: human peripheral blood mononuclear cells (hPBMCs)
Nature of the assay: Western blot degradation of IKZF3 in hPBMCs (24 h). The procedure, abridged: as §1

For the next assay, the target named is T3, IKZF1 (Homo sapiens, UniProt Q13422+Q96SW2).
T3 construct: The supernatant was aspirated as the extracted total cell protein; endogenous in cells; host or cells: human peripheral blood mononuclear cells (hPBMCs)
T3 sequence (Q13422 whole entry): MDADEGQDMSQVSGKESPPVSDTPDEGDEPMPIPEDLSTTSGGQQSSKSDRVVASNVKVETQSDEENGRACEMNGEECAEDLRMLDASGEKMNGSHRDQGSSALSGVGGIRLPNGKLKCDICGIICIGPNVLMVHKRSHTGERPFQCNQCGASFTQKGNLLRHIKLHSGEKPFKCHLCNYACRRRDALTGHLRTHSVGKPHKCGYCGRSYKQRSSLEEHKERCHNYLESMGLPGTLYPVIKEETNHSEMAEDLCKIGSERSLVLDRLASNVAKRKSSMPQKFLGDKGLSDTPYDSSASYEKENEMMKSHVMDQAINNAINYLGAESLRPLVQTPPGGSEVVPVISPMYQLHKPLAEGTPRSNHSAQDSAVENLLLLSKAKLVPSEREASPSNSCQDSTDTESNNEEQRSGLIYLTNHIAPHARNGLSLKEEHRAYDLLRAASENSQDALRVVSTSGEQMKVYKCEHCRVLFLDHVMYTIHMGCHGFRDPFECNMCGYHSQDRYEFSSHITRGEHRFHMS
T3 sequence (Q96SW2 whole entry): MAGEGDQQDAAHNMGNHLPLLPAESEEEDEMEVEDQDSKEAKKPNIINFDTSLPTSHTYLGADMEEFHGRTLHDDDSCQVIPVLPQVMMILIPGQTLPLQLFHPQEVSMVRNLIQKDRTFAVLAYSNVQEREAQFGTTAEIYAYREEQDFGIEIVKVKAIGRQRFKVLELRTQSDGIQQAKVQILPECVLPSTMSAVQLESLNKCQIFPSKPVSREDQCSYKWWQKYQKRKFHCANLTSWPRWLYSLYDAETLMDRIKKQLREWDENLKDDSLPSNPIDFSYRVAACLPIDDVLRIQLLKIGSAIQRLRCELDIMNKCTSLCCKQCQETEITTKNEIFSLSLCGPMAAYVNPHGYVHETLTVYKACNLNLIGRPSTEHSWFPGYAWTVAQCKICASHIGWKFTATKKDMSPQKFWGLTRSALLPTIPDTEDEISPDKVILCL
T3 sequence (Q16531 whole entry partner): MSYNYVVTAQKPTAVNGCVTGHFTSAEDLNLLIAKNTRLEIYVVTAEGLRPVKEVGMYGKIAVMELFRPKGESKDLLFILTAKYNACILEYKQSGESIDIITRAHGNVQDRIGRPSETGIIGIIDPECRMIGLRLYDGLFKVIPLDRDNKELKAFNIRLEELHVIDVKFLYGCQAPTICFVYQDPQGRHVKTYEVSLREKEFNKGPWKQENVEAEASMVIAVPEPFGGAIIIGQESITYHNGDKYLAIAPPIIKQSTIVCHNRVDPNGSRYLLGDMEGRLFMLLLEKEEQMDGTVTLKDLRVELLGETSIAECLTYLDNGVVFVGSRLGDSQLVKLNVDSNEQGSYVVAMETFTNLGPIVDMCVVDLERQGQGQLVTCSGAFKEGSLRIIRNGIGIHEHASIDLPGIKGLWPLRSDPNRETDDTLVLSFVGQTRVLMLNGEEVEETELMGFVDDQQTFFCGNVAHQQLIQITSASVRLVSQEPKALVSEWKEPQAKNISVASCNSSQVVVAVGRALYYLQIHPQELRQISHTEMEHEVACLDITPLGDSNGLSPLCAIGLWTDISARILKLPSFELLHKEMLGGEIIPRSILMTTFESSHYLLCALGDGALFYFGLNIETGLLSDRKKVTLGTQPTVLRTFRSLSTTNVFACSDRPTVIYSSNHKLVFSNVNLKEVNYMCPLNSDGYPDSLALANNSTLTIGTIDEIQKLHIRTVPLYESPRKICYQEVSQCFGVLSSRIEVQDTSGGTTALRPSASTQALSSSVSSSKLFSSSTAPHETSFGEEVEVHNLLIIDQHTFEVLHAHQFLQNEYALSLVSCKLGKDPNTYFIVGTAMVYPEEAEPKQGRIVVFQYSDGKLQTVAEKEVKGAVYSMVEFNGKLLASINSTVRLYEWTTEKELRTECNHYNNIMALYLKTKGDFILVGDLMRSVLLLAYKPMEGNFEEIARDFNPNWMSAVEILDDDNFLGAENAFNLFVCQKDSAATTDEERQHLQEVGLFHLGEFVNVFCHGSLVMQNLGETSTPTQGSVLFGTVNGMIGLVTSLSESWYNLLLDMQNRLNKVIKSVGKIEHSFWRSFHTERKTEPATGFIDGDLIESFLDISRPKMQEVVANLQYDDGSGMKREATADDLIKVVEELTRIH
Nature of the assay: Western blot degradation of IKZF1 in hPBMCs (24 h). The method, boiled down:
as §1

In the next assay the target is T4, CK1α (Homo sapiens, UniProt P48729+Q96SW2).
T4 construct: The supernatant was aspirated as the extracted total cell protein; endogenous in cells; host or cells: human peripheral blood mononuclear cells (hPBMCs)
T4 sequence (P48729 whole entry): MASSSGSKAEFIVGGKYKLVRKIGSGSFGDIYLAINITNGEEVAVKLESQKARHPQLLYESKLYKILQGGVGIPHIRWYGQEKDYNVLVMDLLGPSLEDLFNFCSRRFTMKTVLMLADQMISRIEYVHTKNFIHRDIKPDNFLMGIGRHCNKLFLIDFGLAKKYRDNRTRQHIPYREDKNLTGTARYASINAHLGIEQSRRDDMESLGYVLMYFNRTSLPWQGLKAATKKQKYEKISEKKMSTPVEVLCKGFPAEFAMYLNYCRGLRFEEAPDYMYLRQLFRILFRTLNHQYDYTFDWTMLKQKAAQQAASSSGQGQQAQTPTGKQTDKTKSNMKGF
T4 sequence (Q96SW2 whole entry): as the sequence (Q96SW2 whole entry) above
T4 sequence (Q16531 whole entry partner): as the sequence (Q16531 whole entry partner) above
Nature of the assay: Western blot degradation of CK1α in hPBMCs (24 h). The method, boiled down:
as §1

The next assay deals with T5, GSPT1 (Homo sapiens, UniProt P15170+Q96SW2).
T5 construct: The supernatant was aspirated as the extracted total cell protein; endogenous in cells; host or cells: human peripheral blood mononuclear cells (hPBMCs)
T5 sequence (P15170 whole entry): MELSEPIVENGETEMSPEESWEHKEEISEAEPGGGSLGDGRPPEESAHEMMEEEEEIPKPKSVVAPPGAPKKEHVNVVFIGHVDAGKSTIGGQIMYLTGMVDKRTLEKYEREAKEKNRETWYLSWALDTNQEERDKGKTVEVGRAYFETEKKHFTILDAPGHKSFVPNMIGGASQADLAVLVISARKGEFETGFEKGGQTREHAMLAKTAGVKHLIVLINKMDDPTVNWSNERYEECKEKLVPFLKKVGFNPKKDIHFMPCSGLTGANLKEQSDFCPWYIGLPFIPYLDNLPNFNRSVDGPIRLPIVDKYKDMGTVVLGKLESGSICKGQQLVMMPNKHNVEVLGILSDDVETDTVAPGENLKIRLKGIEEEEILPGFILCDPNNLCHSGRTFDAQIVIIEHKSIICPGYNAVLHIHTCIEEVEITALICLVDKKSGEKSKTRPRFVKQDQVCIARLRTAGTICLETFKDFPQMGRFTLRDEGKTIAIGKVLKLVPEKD
T5 sequence (Q96SW2 whole entry): as the sequence (Q96SW2 whole entry) above
T5 sequence (Q16531 whole entry partner): as the sequence (Q16531 whole entry partner) above
Nature of the assay: Western blot degradation of GSPT1 in hPBMCs (24 h). The procedure, abridged: as §1

In another assay the target is T6, IKZF2 (Homo sapiens, UniProt Q96SW2+Q9UKS7).
T6 construct: The supernatant was aspirated as the extracted total cell protein; endogenous in cells; host or cells: human peripheral blood mononuclear cells (hPBMCs)
T6 sequence (Q9UKS7 whole entry): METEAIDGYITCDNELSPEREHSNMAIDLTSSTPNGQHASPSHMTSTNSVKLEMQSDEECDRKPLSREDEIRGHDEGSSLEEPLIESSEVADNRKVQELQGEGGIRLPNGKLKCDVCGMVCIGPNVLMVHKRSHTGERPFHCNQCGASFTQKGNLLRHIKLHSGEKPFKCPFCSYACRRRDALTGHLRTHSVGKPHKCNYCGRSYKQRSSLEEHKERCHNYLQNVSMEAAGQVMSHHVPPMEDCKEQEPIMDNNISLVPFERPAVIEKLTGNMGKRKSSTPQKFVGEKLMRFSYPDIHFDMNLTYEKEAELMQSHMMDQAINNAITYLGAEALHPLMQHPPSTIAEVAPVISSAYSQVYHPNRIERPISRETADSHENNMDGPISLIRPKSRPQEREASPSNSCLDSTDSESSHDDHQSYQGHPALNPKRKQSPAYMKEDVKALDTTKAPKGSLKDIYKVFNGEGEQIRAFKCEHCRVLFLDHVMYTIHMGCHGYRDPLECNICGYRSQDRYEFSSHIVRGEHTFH
T6 sequence (Q96SW2 whole entry): as the sequence (Q96SW2 whole entry) above
T6 sequence (Q16531 whole entry partner): as the sequence (Q16531 whole entry partner) above
Nature of the assay: Western blot degradation of IKZF2 in hPBMCs (24 h). The method, boiled down:
as §1

T1 sequence (P30291 whole entry): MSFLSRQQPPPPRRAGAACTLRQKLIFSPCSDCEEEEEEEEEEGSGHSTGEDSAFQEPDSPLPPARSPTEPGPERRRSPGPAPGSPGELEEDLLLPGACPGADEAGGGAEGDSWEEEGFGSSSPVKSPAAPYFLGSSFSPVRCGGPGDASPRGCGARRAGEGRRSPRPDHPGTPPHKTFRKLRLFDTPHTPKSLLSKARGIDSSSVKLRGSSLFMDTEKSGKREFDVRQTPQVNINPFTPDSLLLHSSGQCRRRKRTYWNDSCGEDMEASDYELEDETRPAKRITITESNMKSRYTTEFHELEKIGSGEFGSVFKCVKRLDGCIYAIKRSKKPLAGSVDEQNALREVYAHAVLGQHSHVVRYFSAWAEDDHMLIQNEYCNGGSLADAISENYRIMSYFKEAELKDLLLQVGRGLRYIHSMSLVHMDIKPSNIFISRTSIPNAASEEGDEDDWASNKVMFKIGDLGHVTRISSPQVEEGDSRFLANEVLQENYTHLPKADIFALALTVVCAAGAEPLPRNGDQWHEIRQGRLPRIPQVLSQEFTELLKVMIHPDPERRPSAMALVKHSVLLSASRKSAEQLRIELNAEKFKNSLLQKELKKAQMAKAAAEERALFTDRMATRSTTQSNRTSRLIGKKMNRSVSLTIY
T1 sequence (Q96SW2 whole entry): as the sequence (Q96SW2 whole entry) above
T1 sequence (Q16531 whole entry partner): as the sequence (Q16531 whole entry partner) above

Regarding `O=C1CCN(N2C(=O)c3ccc(CN4CCC(c5ncc6ccsc6n5)CC4)cc3C2=O)C(=O)N1` [GT-08427, 2-(2,4-dioxotetrahydropyrimidin-1(2H)-yl)-5-((4-(thieno[2,3-d]pyrimidin-2-yl)piperidin-1-yl)methyl)isoindoline-1,3-dione], the “WEE1 substrate protein remaining %” value at WEE1 is listed as “A (0% ≤ substrate protein remaining % ≤80%)”. Besides, on IKZF3, the “IKZF3 substrate protein remaining %” value is “B (80%< substrate protein remaining % ≤100%)”. The “IKZF1 substrate protein remaining %” value on IKZF1 is reported as “B (80%< substrate protein remaining % ≤100%)”. For the same compound, the “CK1α substrate protein remaining %” value on CK1α was “B (80%< substrate protein remaining % ≤100%)”. On GSPT1, the “GSPT1 substrate protein remaining %” value is recorded as “B (80%< substrate protein remaining % ≤100%)”. In addition, the “IKZF2 substrate protein remaining %” value at IKZF2 is reported as “A (0% ≤ substrate protein remaining % ≤80%)”.

For `O=C1CCN(N2C(=O)c3ccc(CN4CC5CCC4CN5c4cccc(Cl)c4Cl)cc3C2=O)C(=O)N1` (stereo not drawn) [GT-07436, 5-((5-(2,3-dichlorophenyl)-2,5-diazabicyclo[2.2.2]octan-2-yl)methyl)-2-(2,4-dioxotetrahydropyrimidin-1(2H)-yl)isoindoline-1,3-dione], on WEE1, the “WEE1 substrate protein remaining %” value is on record as “B (80%< substrate protein remaining % ≤100%)”. In addition, the “IKZF3 substrate protein remaining %” value on IKZF3 is on record as “B (80%< substrate protein remaining % ≤100%)”. Besides, the “IKZF1 substrate protein remaining %” value at IKZF1 was “B (80%< substrate protein remaining % ≤100%)”. For the same compound, on CK1α, the “CK1α substrate protein remaining %” value is “A (0% ≤ substrate protein remaining % ≤80%)”. Moreover, the “GSPT1 substrate protein remaining %” value on GSPT1 is on record as “B (80%< substrate protein remaining % ≤100%)”. On IKZF2, the “IKZF2 substrate protein remaining %” value is reported as “A (0% ≤ substrate protein remaining % ≤80%)”.

Turning to `O=C1CCN(N2C(=O)c3ccc(CN4CCN(c5ccc(F)c(F)c5)CC4)cc3C2=O)C(=O)N1` [GT-06797, 5-((4-(3,4-difluorophenyl)piperazin-1-yl)methyl)-2-(2,4-dioxotetrahydropyrimidin-1(2H)-yl)isoindoline-1,3-dione], the “WEE1 substrate protein remaining %” value at WEE1 was “A (0% ≤ substrate protein remaining % ≤80%)”. Moreover, the “IKZF3 substrate protein remaining %” value on IKZF3 was “B (80%< substrate protein remaining % ≤100%)”. Besides, the “IKZF1 substrate protein remaining %” value on IKZF1 is listed as “B (80%< substrate protein remaining % ≤100%)”. Besides, the “CK1α substrate protein remaining %” value at CK1α was “B (80%< substrate protein remaining % ≤100%)”. Moreover, on GSPT1, the “GSPT1 substrate protein remaining %” value is recorded as “B (80%< substrate protein remaining % ≤100%)”. Further, the “IKZF2 substrate protein remaining %” value at IKZF2 is “B (80%< substrate protein remaining % ≤100%)”.

Turning to `O=C1CCN(N2Cc3cc(CN4CCN(Cc5ccccc5-c5ccc(Cl)cc5)CC4)ccc3C2=O)C(=O)N1` [GT-06433, 1-(5-((4-((4′-chloro-[1,1′-biphenyl]-2-yl)methyl)piperazin-1-yl)methyl)-1-oxoisoindolin-2-yl)dihydropyrimidine-2,4(1H,3H)-dione], the “WEE1 substrate protein remaining %” value on WEE1 is recorded as “A (0% ≤ substrate protein remaining % ≤80%)”. The “IKZF3 substrate protein remaining %” value on IKZF3 is on record as “A (0% ≤ substrate protein remaining % ≤80%)”. For the same compound, the “IKZF1 substrate protein remaining %” value on IKZF1 is “A (0% ≤ substrate protein remaining % ≤80%)”. Also, the “CK1α substrate protein remaining %” value on CK1α is on record as “B (80%< substrate protein remaining % ≤100%)”. Besides, on GSPT1, the “GSPT1 substrate protein remaining %” value is on record as “A (0% ≤ substrate protein remaining % ≤80%)”. Further, the “IKZF2 substrate protein remaining %” value at IKZF2 is reported as “A (0% ≤ substrate protein remaining % ≤80%)”.
